Assay results: patent US8663646B2, “P53 peptide vaccine” (priority 2007, dated 2014)
Where two headings read alike, the source gives them in different places. Values belong to the compound of their own block, whether it stands above or below them.

Key:
[1] = biological target: T1, 20S immuno-proteasomes from human B-LCL cell line (JY) (Homo sapiens, UniProt P28062+P28065+P40306); conditions: PRAME peptides (Kessler J H et al 2001); cited from earlier work
T1 construct: purified from a mouse B-cell line (RMA) and a human B-LCL cell line (JY); endogenous in cells; host or cells: B-LCL JY cells; 20S proteasome purified from them

[2] = biological target: T2, HLA-A*0201 (Homo sapiens, UniProt P04439, D140Y/D185E/D98H/E176V/E277Q/G131W/G231S/I119V/I121R/I166T/I218V/L300P/L318F/N151K/N90K/P208A/P217A/Q86G/Q94H/R138H/R169H/T345S); conditions: binding capacity previously determined, cited from earlier work
[3] = biological target: T2, HLA-A*0201; assay: Peptide stabilization for HLA-A*0201; assay type: binding; conditions: HLA-A*0201; p53 peptides
[4] = system: proteasome; assay: Proteasome processing, summarised over proteasome types (Table 5); assay type: biochemical; conditions: 30 residue long precursor peptides
Description: In the context of the invention, “being inefficiently processed by a proteasome” preferably means that within the first hour of digestion by a proteasome less than 1% of total digested peptide is found. The processing by a proteasome is preferably assessed by incubating a purified proteasome, more preferably a human proteasome with a peptide comprising the potential CTL epitope (30 amino acid length approximately) in a proteasome digestion buffer during at least one hour at 37° C. The reaction is subsequently stopped by adding trifluoroacetic acid. Analysis of the digested peptides is performed with electrospray ionization mass spectrometry (see example 1). Even more preferably, the human proteasome is an immunoproteasome from B-LCL JY cells (Kessler J H et al. 2001).
20S immuno-proteasomes were purified from a mouse B-cell line (RMA) and a human B-LCL cell line (JY) and 20S household proteasomes were purified from human tumor cell line (HeLa) as described (Kessler J H et al 2001). To assess kinetics, digestions were performed with different incubation periods as indicated. Briefly, peptides containing the (potential) CTL epitopes (30 mers, 20 μg) were incubated with 1 μg of purified proteasome at 37° C. for 1 h, 4 h and 24 h in 300 μl proteasome digestion buffer, trifluoroacetic acid (30 μl) was added to stop the digestion and samples were stored at −20° C. before mass spectrometric analysis. Electrospray ionization mass spectrometry was performed on a hybrid quadrupole time-of-flight mass spectromter, a Q-TOF (Micromass), equipped with an on-line nanoelectrospray interface with an approximate flow rate of […] as described (Kessler J H et al 2001). The peaks in the mass spectrum were searched in the digested precursor peptide using the Biolynx/proteins software (Micromass) supplied with the mass spectrometer. The intensity of the peaks in the mass spectra was used to establish the relative amounts of peptides generated after proteasome digestion. The relative amounts of the peptides are given as a percentage of the total amount of peptide digested by the proteasome at the indicated incubation time. Major cleavage sites are defined as more than >1% of total digested peptide within the first hour.

[5] = biological target: T1, 20S immuno-proteasomes from human B-LCL cell line (JY); assay: In vitro proteasome mediated digestion of 30-mers, mass spectrometry, immunoproteasome JY; assay type: biochemical; conditions: 30 residue long precursor peptides
Summary of the method: (§1)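 30-mer peptides (20 μg) digested with 1 μg purified 20S proteasome (JY or RMA immunoproteasome, HeLa household proteasome) at 37° C for 1, 4 and 24 h, stopped with TFA. Nano-ESI Q-TOF MS; fragments quantified by peak intensity as percent of total digested peptide per time point; major cleavage site >1% within first hour.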

[6] = biological target: T3, 20S immuno-proteasomes from mouse B-cell line (RMA) (Mus musculus, UniProt O35955+P28063+P28076); assay: In vitro proteasome mediated digestion of 30-mers, mass spectrometry, immunoproteasome RMA; assay type: biochemical; conditions: 30 residue long precursor peptides
T3 construct: 20S immuno-proteasomes were purified from a mouse B-cell line (RMA); endogenous in cells; host or cells: RMA cells; 20S proteasome purified from them
Summary of the method: as §1

[7] = biological target: T4, 20S household proteasomes from human tumor cell line (HeLa) (Homo sapiens, UniProt P28072+P28074+Q99436); assay: In vitro proteasome mediated digestion of 30-mers, mass spectrometry, household proteasome HeLa; assay type: biochemical; conditions: 30 residue long precursor peptides
T4 construct: 20S household proteasomes were purified from human tumor cell line (HeLa); endogenous in cells; host or cells: HeLa cells; 20S proteasome purified from them
Summary of the method: as §1

[8] = biological target: T5, HLA-A*0101 (Homo sapiens, UniProt P04439, A114D/A174V/A182V/D101N/D185E/E176A/E190D/L180R/Q94H/R68K/S129P/T187R/V100A/V91M/W191G); assay: Competition based cellular binding assay, HLA-A*0101 (B-cell line CAA)
T5 construct: B-cell lines used are: CAA (A*0101), EKR (A*0301), BVR (A*1101), VIJF (A*2401); endogenous in cells; host or cells: B-cell line CAA

[9] = biological target: T5, HLA-A*0101; assay: Stability of peptide-HLA complex, binding at 4° C. and 20° C., HLA-A*0101

Compound: VLDGLDVLL [PRA 100-108]
Proteasomal Cleavage of C-terminus, IP (JY) [1]: + (Major cleavage sites are defined as more than >1% of total digested peptide within the first hour)

Peptide Binding Stability [3]: 6 h
Compound: CSCC[C@H](NC(=O)[C@@H](N)CCCNC(=N)N)C(=O)N1CCC[C@H]1C(=O)N[C@@H](CCC(=O)O)C(=O)N[C@@H](C)C(=O)N[C@@H](C)C(=O)N1CCC[C@H]1C(=O)N1CCC[C@H]1C(=O)N[C@H](C(=O)O)C(C)C [p53 65-73]
Peptide Binding Affinity [2]: high | generation / processing by household and immunoproteasomes, in words [4]: not/inefficiently processed

Compound: SLLQHLIGL [PRA 425-433]
Proteasomal Cleavage of C-terminus, IP (JY) [1]: + (Major cleavage sites are defined as more than >1% of total digested peptide within the first hour)

Compound: SLYSFPEPEA [PRA 142-151]
Proteasomal Cleavage of C-terminus, IP (JY) [1]: + (Major cleavage sites are defined as more than >1% of total digested peptide within the first hour)

Compound: CC(C)C[C@H](NC(=O)[C@@H](NC(=O)[C@H](Cc1ccccc1)NC(=O)[C@H](Cc1ccc(O)cc1)NC(=O)[C@H](CCC(=O)O)NC(=O)CNC(=O)[C@H](CC(=O)O)NC(=O)[C@H](CC(C)C)NC(=O)[C@@H]1CCCN1)[C@@H](C)O)C(=O)O [p53 322-330]
Proteasomal Cleavage of C-terminus, IP (JY) [5]: + (Major cleavage sites are defined as more than >1% of total digested peptide within the first hour) | IC50 ([2]; read-out: Peptide Binding Affinity): 5 to 15 µM | Proteasomal Cleavage of C-terminus, IP (RMA) [6]: + (Major cleavage sites are defined as more than >1% of total digested peptide within the first hour) | Proteasomal Cleavage of C-terminus, HH (HeLa) [7]: + (Major cleavage sites are defined as more than >1% of total digested peptide within the first hour)

Compound: ALYVDSLFFL [PRA 300-309]
Proteasomal Cleavage of C-terminus, IP (JY) [1]: + (Major cleavage sites are defined as more than >1% of total digested peptide within the first hour)

IC50 ([8]; HLA type A1, read-out: HLA binding Affinity (Table 5)): 15 to 50 µM | IC50 ([8]; HLA-A*0101, IC50 category, read-out: Peptide Binding Affinity): 5 to 15 µM
Compound: CC[C@H](C)[C@H](NC(=O)[C@@H](NC(=O)[C@@H](NC(=O)[C@@H](N)CS)[C@@H](C)O)[C@@H](C)O)C(=O)N[C@@H](Cc1c[nH]cn1)C(=O)N[C@@H](Cc1ccc(O)cc1)C(=O)N[C@@H](CC(N)=O)C(=O)N[C@@H](Cc1ccc(O)cc1)C(=O)O [p53 229-236]
HLA binding Stability (Table 5) ([9]; HLA type A1): − (The rest was designated as unstable peptide binding.) | Peptide Binding Stability ([9]; HLA-A*0101, IC50 at 20° C. vs 4° C.): − (The rest was designated as unstable peptide binding.)
